Assay results: patent EP1581471B9, “CYCLOPENTENONE DERIVATIVES FOR CANCER THERAPY” (Dabur Research Foundation, priority 2002, dated 2004)
≈ marks a conversion by molar mass, not a printed value.

How the values were obtained:
[1] = system: PA-1; test: three day MTT cytotoxicity assay; type: cell-based, human; conditions: PA-1 (ovary), 72 hours
Experimental: (§1) A number of the cyclopentenone derivatives were tested for cytotoxicity against 9 human tumor cell lines. Briefly, a three day MTT cytotoxicity assay was performed, which is based on the principle of uptake of MTT (3-(4,5-dimethylthiazol-2-yl)-2,5-diphenyl tetrazolium bromide), a tetrazolium salt, by the metabolically active cells where it is metabolized by active mitochondria into a blue colored formazan product that is read spectrophotometrically. MTT was dissolved in phosphate buffered saline with a pH of 7.4 to obtain an MTT concentration of 5mg/ml; the resulting mixture was filtered through a 0.22 micron filter to sterilize and remove a small amount of insoluble residue. For each type of tumor cell, 10000 to 15000 cells were seeded in a 96-well culture plate and incubated with the individual cyclopentenone derivatives in a CO2 incubator for a total of 72 hours. Control cells not treated with the cyclopentenone derivatives were similarly incubated. The assay was terminated by adding 100 ug (20 ul) of MTT to each well, then incubating for additional one hour, and finally adding 50 ul of 10% SDS-0.01N HCl to each well to lyse the cells and dissolve formazan. After incubating for one hour, the plate was read spectrophotometrically at 540 nm and the percentage of cytotoxicity calculated using the following formula: Cytotoxicity percentage = 100 × [1-(X/R1)], [formula] where X = (absorbance of treated sample at 540 nm) - (absorbance of blank at 540 nm) R1 = absorbance of control sample at 540 nm.
(§2) The ED50 Values of the cytotoxicity defined as the concentration at which 50 % of the cells are killed in vitro was calculated for each cell line treated with each of the cyclopentenone derivatives.
(§3) The cell lines are PTC (all colon), MOLT-4 (leukemia), SW620 […], DU145 (prostate), KB (oral squamous cell), L132 (lung), MIAPaCa2 (Pancreas), Hep2, (larynx), PA-1 (ovary), HuTu80 (duodenum), ECV 304 (endothelial), and 293 (kidney).

[2] = system: MOLT-4; test: three day MTT cytotoxicity assay; type: cell-based, human; conditions: MOLT-4 (leukemia), 72 hours
Experimental: as §1, §2, §3

[3] = system: SW620; test: three day MTT cytotoxicity assay; type: cell-based, human; conditions: 72 hours
Experimental: as §1, §2, §3

[4] = system: HuTu80; test: three day MTT cytotoxicity assay; type: cell-based, human; conditions: HuTu80 (duodenum), 72 hours
Experimental: as §1, §2, §3

[5] = system: MIAPaCa2; test: three day MTT cytotoxicity assay; type: cell-based, human; conditions: MIAPaCa2 (Pancreas), 72 hours
Experimental: as §1, §2, §3

[6] = system: L132; test: three day MTT cytotoxicity assay; type: cell-based, human; conditions: L132 (lung), 72 hours
Experimental: as §1, §2, §3

[7] = system: 293; test: three day MTT cytotoxicity assay; type: cell-based, human; conditions: 293 (kidney), 72 hours
Experimental: as §1, §2, §3

[8] = system: Hep2; test: three day MTT cytotoxicity assay; type: cell-based, human; conditions: Hep2 (larynx), 72 hours
Experimental: as §1, §2, §3

[9] = system: DU145; test: three day MTT cytotoxicity assay; type: cell-based, human; conditions: DU145 (prostate), 72 hours
Experimental: as §1, §2, §3

[10] = system: PTC; test: three day MTT cytotoxicity assay; type: cell-based, human; conditions: PTC (colon), 72 hours
Experimental: as §1, §2, §3

[11] = system: KB; test: three day MTT cytotoxicity assay; type: cell-based, human; conditions: KB (oral squamous cell), 72 hours
Experimental: as §1, §2, §3

[12] = system: ECV 304; test: three day MTT cytotoxicity assay; type: cell-based, human; conditions: ECV 304 (endothelial), 72 hours
Experimental: as §1, §2, §3

[13] = system: VEGF; test: VEGF levels in ECV304 endothelial cells (ELISA); type: cell-based, Human; conditions: 5ug/ml, 4 hours
Experimental: Human endothelial cells (ECV304) were plated at the density of 8-10 x10^5 cells per 2 ml in a six well plate. After an overnight incubation of cells at 37°C, cyclopentenone derivatives at a concentration of 5ug/ml was added to the wells. The untreated wells served as controls. The plates were incubated for 4 hours at 37°C. The medium was collected from all the wells (control and treated) and spun down at 2000 r.p.m to remove the cellular material. The supernatant was collected and used for ELISA (Quantikine human VEGF, R&D Systems). The assay employs the quantitative sandwich enzyme immunoassay technique. A monoclonal antibody specific for VEGF has been pre-coated onto a microplate. Standards and samples were pipetted into the wells and VEGF present was bound by the immobilized antibody. After washing away the unbound substances, an enzyme-linked polyclonal antibody specific for VEGF was added to the wells. Following a wash to remove any unbound antibody-enzyme reagent, a substrate solution was added to the wells and color developed in proportion to the amount of VEGF bound in the initial step. The optical density of each well was determined within 30 minutes using a microplate reader set to 450nm and reference wavelength at 540nm. The VEGF levels were inhibited by the addition of cyclopentenone derivatives in vitro.

[14] = system: Caspase-3; test: Caspase-3 induction in KB cells (colorimetric substrate DEVD-pNA); type: cell-based, Human; conditions: 5ug/ml
Experimental: Human squamous cell carcinoma (KB) were plated in a 25 cm^2 flask. When cultures achieved confluence, the cyclopentenone derivative of structure 20 was added to the cells. The final concentration of derivative of the structure 20 in the flask was 5ug/ml. The untreated wells served as controls. The cells were incubated with the drug for 2 different time points of 6 and 16 hours at 37°C. The cells were collected by centrifugation at 2000 r.p.m. for 10 minutes. The supernatant was gently removed and discarded while Lysis Buffer was added to the cell pellet (25ul of lysis buffer per […]). The cell lysate was incubated on ice for 10 minutes and centrifuged at 10,000-x g for 1 minute. The supernatant was transferred to a new tube and kept on ice. 50ul of the cell lysate was added in a 96 well plate. To this was added 2x Reaction Buffer. Prior to using reaction buffer, 10ul of fresh DTT stock per 1 ml of 2x Reaction Buffer was added. To each well 5ul of Caspase-3 colorimetric substrate (DEVD-pNA) was added. The plate was incubated for 1-2 hours at […]. and read at 405nm.
The level of caspase enzymatic activity in the cell lysate is directly proportional to the absorbance at 405nm. […]

[15] = system: tubulin; test: tubulin polymerization in vitro (absorbance at 340 nm); type: biochemical; conditions: tubulin 1mg/ml, 37°C, pH 6.9; read-out: IC50 values (uM) for inhibition of Tubulin Polymerization
Experimental: The cyclopentenone derivatives were checked for their effects on tubulin polymerization in vitro. Briefly, the tubulin assembly reaction was performed at 37°C in buffer containing 80 mM PIPES, 1mM EGTA, 1.0 mM GTP and 1mM MgCl2 (pH 6.9) at a tubulin concentration of 1mg/ml in the presence or absence of the cyclopentenone derivatives. The final concentration of the cyclopentenone derivatives in the reaction mixture varied from 1-5uM. The derivatives were dissolved in 0.1% DMSO. The control experiments were carried out with 0.1% DMSO. The tubulin polymerization was followed by measurement of the absorbance of the solution at 340 nm every 30 seconds. […] Thus the cyclopentenone derivatives mediated their observed anticancer activities by tubulin depolymerization.

Compound	ED50 (ug/ml) PA1 [1]	ED50 (ug/ml) MOLT4 [2]	ED50 (ug/ml) SW620 ([3]; SW620 (colon))	ED50 (ug/ml) HuTu80 [4]	ED50 (ug/ml) MiaPaca [5]	ED50 (ug/ml) L132 [6]	ED50 (ug/ml) 293 [7]	ED50 (ug/ml) Hep2 [8]	ED50 (ug/ml) DU145 [9]	ED50 (ug/ml) PTC [10]	ED50 (ug/ml) KB [11]	ED50 (ug/ml) ECV 304 [12]	ED50 (ug/ml) SW620 ([3]; SW620 (ovary))	Percent Reduction in VEGF [13]	Percent Induction of Caspase-3 6 hours [14]	Percent Induction of Caspase-3 16 hours [14]	IC50 [15]
COc1ccc(C2=C(c3cc(OC)c(OC)c(OC)c3)C(=O)C(O[Si](C)(C)C(C)(C)C)C2)cc1OC(C)C (stereo not shown) [Compound 56, 5-tert-Butyldimethylsilyloxy-3-(4-methoxy-3-i-propoxyphenyl)-2-(3,4,5-trimethoxyphenyl)-cyclopent-2-en-1-one]	7.1 ± 1.5 µg/mL (≈ 13.1 µM)	22.5 ± 4.0 µg/mL (≈ 41.5 µM)	9 ± 1.5 µg/mL (≈ 16.6 µM)	6 ± 0.5 µg/mL (≈ 11.1 µM)	>100 µg/mL	7 µg/mL (≈ 12.9 µM)	>100 µg/mL	7.1 ± 1.5 µg/mL (≈ 13.1 µM)	6.3 ± 2.1 µg/mL (≈ 11.6 µM)	>100 µg/mL	7.5 ± 3.5 µg/mL (≈ 13.8 µM)	>100 µg/mL					
COc1ccc(C2=C(c3cc(OC)c(OC)c(OC)c3)C(=O)C(O)C2)cc1Cl (stereo not shown) [Compound 67, 5-Hydroxy-3-(3-chloro-4-methoxyphenyl)-2-(3,4,5-trimethoxyphenyl)-cyclopent-2-en-1-one]				29 ± 2.5 µg/mL (≈ 71.6 µM)	>100 µg/mL	<1 µg/mL	>100 µg/mL	<1 µg/mL	40 ± 8.5 µg/mL (≈ 98.8 µM)	30 ± 4.0 µg/mL (≈ 74.1 µM)	2.5 ± 0.1 µg/mL (≈ 6.18 µM)	20 ± 3.5 µg/mL (≈ 49.4 µM)	<1 µg/mL				
COc1ccc(C2=C(c3cc(OC)c(OC)c(OC)c3)C(=O)C(O)C2)cc1F (stereo not shown) [Compound 64, 5-Hydroxy-3-(3-fluoro-4-methoxyphenyl)-2-(3,4,5-trimethoxyphenyl)-cyclopent-2-en-1-one]			<1 µg/mL	<1 µg/mL	64 ± 3.5 µg/mL (≈ 165 µM)	<1 µg/mL	>100 µg/mL	<1 µg/mL	27 ± 3.5 µg/mL (≈ 69.5 µM)	20 ± 2.5 µg/mL (≈ 51.5 µM)	4.5 ± 1.5 µg/mL (≈ 11.6 µM)	19.5 ± 4.5 µg/mL (≈ 50.2 µM)					
COc1ccc(C2=C(c3cc(OC)c(OC)c(OC)c3)C(=O)C(O)C2)cc1O (stereo not shown) [Compound 74]														16.9 ± 0.5%	21.8 ± 2.8%	28.4 ± 2.1%	1.8 ± 0.5 µM
COc1cc(C2=C(c3ccc(SC)cc3)CC(O[Si](C)(C)C(C)(C)C)C2=O)cc(OC)c1OC (stereo not shown) [Compound 55, 5-tert-Butyldimethylsilyloxy-3-(4-thiomethylphenyl)-2-(3,4,5 trimethoxyphenyl)-cyclopent-2-en-1-one]	<1.0 µg/mL	<1.0 µg/mL			<1.0 µg/mL	<1.0 µg/mL		>100 µg/mL	>100 µg/mL	14 ± 3.5 µg/mL (≈ 28 µM)	10 ± 1.5 µg/mL (≈ 20 µM)	>100 µg/mL	<1.0 µg/mL				
COc1ccc(C2=C(c3cc(OC)c(OC)c(OC)c3)C(=O)C(O)C2)cc1 (stereo not shown) [Compound 48]	<1.0 µg/mL	<1.0 µg/mL			79 ± 9.5 µg/mL (≈ 213 µM)	9.0 ± 3.3 µg/mL (≈ 24.3 µM)		<1.0 µg/mL	>100 µg/mL	6.0 ± 1.5 µg/mL (≈ 16.2 µM)	8 ± 2.1 µg/mL (≈ 21.6 µM)	>100 µg/mL	<1.0 µg/mL	23.7 ± 2.2%	18.4 ± 1.1%	22.7 ± 1.5%	2.1 ± 0.1 µM
COc1ccc(C2=C(c3cc(OC)c(OC)c(OC)c3)C(=O)C(O[Si](C)(C)C(C)(C)C)C2)cc1 (stereo not shown) [Compound 52, O-tert-Butyldimethylsilyloxy-3-(4-methoxyphenyl)-2-(3,4,5-trimethoxyphenyl)-cyclopent-2-en-1-one]	7.0 ± 3.5 µg/mL (≈ 14.4 µM)	3.0 ± 1.5 µg/mL (≈ 6.19 µM)			<1.0 µg/mL	9.0 ± 2.5 µg/mL (≈ 18.6 µM)		16 ± 3.0 µg/mL (≈ 33 µM)	28 ± 4.0 µg/mL (≈ 57.8 µM)	16 ± 3.6 µg/mL (≈ 33 µM)	7.0 ± 3.0 µg/mL (≈ 14.4 µM)	16 ± 4.0 µg/mL (≈ 33 µM)	5.0 ± 1.0 µg/mL (≈ 10.3 µM)				
